Consider 15 molecules from US8394991B2, “Phenoxy substituted phenylamidine derivatives and their use as fungicides” (Bayer Cropscience AG, priority 2007, dated 2013).

One may read the logP as a log measure of how a compound divides between an organic and an aqueous phase.

Data set [1] in a line: logP (acidic, pH 2.3).
Data set [2] relates to Erysiphe graminis f. sp. Hordei. Put plainly: Erysiphe test (barley) / protective. Type of data set: in vivo. The following applies: Blumeria graminis, 168 h; barley plants, protective spray, 500 ppm active compound, evaluation 7 days after inoculation; read-out: efficacy. Here is the method: Solvent: 49 parts by weight of N,N-dimethylformamide
Emulsifier: 1 part by weight of alkylaryl polyglycol ether
To produce a suitable preparation of active compound, 1 part by weight of N-ethyl-N-methyl-N′-[4-phenoxy-2,5-xylyl]formamidine (according to formula I-a) is mixed with the stated amounts of solvent and emulsifier, and the concentrate is diluted with water to the desired concentration.
To test for protective activity, young cereal plants are sprayed with the active compound preparation at the stated application rate. 1 day after the treatment, the plants are inoculated with spores of Erysiphe graminis f. sp. Hordei. The plants are then placed in a greenhouse at 70% relative atmospheric humidity and a temperature of 18° C.
Evaluation is carried out 7 days after the inoculation. 0% means an efficacy which corresponds to that of the control, whereas an efficacy of 100% means that no infection is observed.

Turning to `CCCN(C)C=Nc1cc(C)c(Oc2cccc(C(C)(C)OC)c2)cc1C` [Compound 65-1, N′-{4-[3-(1-methoxy-1-methylethyl)-phenoxy]-2,5-dimethylphenyl}-N-methyl-N-propyl imidoformamide], in data set [1] (acidic), the logP acidic is given as 2.50.

On to `Cc1cc(Oc2cccc(CCCO)c2)c(C)cc1N=CN(C)C(C)C` [Compound 57-2, N′-{4-[3-(3-hydroxypropyl)phenoxy]-2,5-dimethylphenyl}-N-isopropyl-N-methylimidoformamide], for which the pest or weed control at 500 ppm in data set [2] was at least 70%. Moreover, the log partition coefficient (logP) in data set [1] (pH 2.3) worked out at 1.67.

With `CCN(C)C=Nc1cc(C)c(Oc2cccc(CCCO)c2)cc1C` [Compound 57-1, N-ethyl-N′-{4-[3-(3-hydroxypropyl)phenoxy]-2,5-dimethylphenyl}-N-methylimidoformamide], the logP in data set [1] (pH 2.3) worked out at 1.56.

With `COC(C)(C)c1cccc(Oc2cc(C)c(/N=C/N3CC(C)OC(C)C3)cc2C)c1` (stereo not shown) [Compound 65-2, N-[(1E)-(2,6-dimethyl-morpholin-4-yl)methylene]-4-[3-(1-methoxy-1-methylethyl)phenoxy]-2,5-dimethylaniline], the logP in data set [1] (pH 2.3) came to 2.24.

With `CCN(C)C=Nc1cc(C)c(Oc2cccc(C(C)(CC)OC)c2)cc1C` (stereo not shown) [Compound 8, N-ethyl-N′-{4-[3-(1-methoxy-1-methylpropyl)phenoxy]-2,5-dimethylphenyl}-N-methylimidoformamide], in data set [2], the pest or weed control at 500 ppm is at least 70%.

Turning to `CCN(C)C=Nc1cc(C)c(Oc2cccc(CC(C)(C)C)c2)cc1C` [Compound 62, N′-{4-[3-(2,2-dimethylpropyl)phenoxy]-2,5-dimethylphenyl}-N-ethyl-N-methylimidoformamide], the pest or weed control at 500 ppm in data set [2] was at least 70%. The log partition coefficient (logP) in data set [1] (pH 2.3) came out at 2.74.

With `CCN(C)C=Nc1cc(C)c(Oc2cccc(C[Si](C)(C)C)c2)cc1C` [Compound 63, N′-(2,5-dimethyl-4-{3-[(trimethylsilyl)methyl]-phenoxy}phenyl)-N-ethyl-N-methylimido-formamide], the pest or weed control at 500 ppm in data set [2] is at least 70%. In addition, the logP in data set [1] (pH 2.3) amounted to 2.93.

On to `CCN(C)C=Nc1cc(C)c(Oc2cccc(C(C)C)c2)cc1Cl` [Compound 61-1, N′-[2-chloro-4-(3-isopropylphenoxy)-5-methylphenyl]-N-ethyl-N-methylimidoformamide], for which the pest or weed control at 500 ppm in data set [2] was at least 70%. The same molecule had a log partition coefficient (logP) in data set [1] (pH 2.3) of 2.38.

As for `Cc1cc(N)c(Cl)cc1Oc1cccc(C(C)C)c1` [4-(3-Isopropylphenoxy)-2-chloro-5-methylaniline], the logP in data set [1] (pH 2.3) is 4.68.

For `Cc1cc(/N=C/N2CCCCC2)c(Cl)cc1Oc1cccc(C(C)C)c1` [Compound 61-3, 2-chloro-4-(3-isopropylphenoxy)-5-methyl-N-[(1E)-piperidin-1-ylmethylene]aniline], the logP in data set [1] (pH 2.3) amounted to 2.62.

In turn, `Cc1cc(/N=C/N2CCCCC2C)c(Cl)cc1Oc1cccc(C(C)C)c1` (stereo not shown) [Compound 61-4, 2-chloro-4-(3-isopropylphenoxy)-5-methyl-N-[(1E)-(2-methylpiperidin-1-yl)methylene]aniline] registered a lipophilicity (logP) in data set [1] (pH 2.3) of 2.67.

Consider “4-(3-Isopropylphenoxy)-2-chloro-5-methylnitrobenzene”, for which the “log P (pH2.3)” value in data set [1] (pH 2.3) was determined as 5.54.

On to `CCN(C)C=Nc1cc(C)c(Oc2cccc(C(C)(C)OC)c2)cc1C` [Compound 37, N-ethyl-N′-{4-[3-(1-methoxy-1-methylethyl)phenoxy]-2,5-dimethylphenyl}-N-methylimidoformamide], for which the pest or weed control at 500 ppm in data set [2] was at least 70%. The same molecule had a logP in data set [1] (pH 2.3) of 2.14.

`CCN(C)C=Nc1cc(C)c(Oc2cccc(C3CC3)c2)cc1C` [Compound 64, N′-[4-(3-cyclopropylphenoxy)-2,5-dimethylphenyl]-N-ethyl-N-methylimido-formamide]: the pest or weed control at 500 ppm in data set [2] was at least 70%. This molecule also came in with a lipophilicity (logP) in data set [1] (pH 2.3) of 2.35.

`Cc1cc(N=CN(C)C(C)C)c(Cl)cc1Oc1cccc(C(C)C)c1` [Compound 61-2, N′-[2-chloro-4-(3-isopropylphenoxy)-5-methylphenyl]-N-isopropyl-N-methylimidoformamide]: in data set [2], the pest or weed control at 500 ppm is at least 70%. In data set [1] (pH 2.3), this molecule displayed a logP of 2.54.
